How the values were obtained:
[1] = system: CTLL2; assay: Cellular screening, CTLL2 cells, Alamar Blue; type: cell-based; conditions: Mus musculus, CTLL-2, read-out: CTLL2 IC50_nM
Procedure, shortened: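 CTLL2 cells in late log phase incubated with compound for 40 hr at 37° C, 5% CO2. Viability then read at 544 nm after a further 4-6 hours with Alamar Blue.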

[2] = target: T1, human JAK2 (Homo sapiens, UniProt O60674); assay: Alphascreen tyrosine kinase enzyme assay, JAK2 kinase domain; type: biochemical; conditions: read-out: JAK2 IC50_nM
T1 construct: The kinase domain of human JAK2 was amplified; GST (N); made in house; host or cells: Sf9 insect cells (baculovirus)
Procedure, shortened: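 JAK2 kinase domain expressed in baculovirus/Sf9 and glutathione-affinity purified. Compounds (final […]) pre-incubated 20 min with enzyme in 10 mM HEPES pH 7.5, MgCl2, NaCl, vanadate, 0.1% Tween 20.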

[3] = target: T2, BaF3 TELJAK2 cells (BafT_J2) (Homo sapiens, UniProt O60674); assay: Cellular screening, BaF3 TEL:JAK2 cells, Alamar Blue; type: cell-based; conditions: 40 hr, read-out: BafT_J2 IC50_nM
T2 construct: fused on or other part: TEL (ETV6) N-terminal part, coding nucleotides 1-487, serves as the oligomerising partner; It is fused through a Sal I site to the JAK2 kinase domain and expressed from pTRE2 in BaF3 cells bearing pTET-off; P41212 (Transcription factor ETV6)
Procedure, shortened: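 Tet-off BaF3 cells carrying a TEL (nt 1-487)–JAK2 kinase-domain fusion, grown factor-independently in DMEM with 10% Tet-approved FBS without WEHI 3B medium. Compounds were diluted to 20 μM in screening plates, and cells (50,000–200,000 cell/mL at 1.1×) were incubated 40 hr at 37 °C, 5% CO2. Alamar Blue was then added for 4-6 hours; read at 544 nm.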

[4] = target: T3, human JAK3 (Homo sapiens, UniProt P52333); assay: Alphascreen tyrosine kinase enzyme assay, JAK3 kinase domain; type: biochemical; conditions: read-out: JAK3 IC50_nM
T3 construct: The kinase domain of human JAK3 was amplified; GST (N); made in house; host or cells: Sf9 insect cells (baculovirus)
Procedure, shortened: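 GST-affinity-purified human JAK3 kinase domain (baculovirus/Sf9) was pre-incubated 20 min with compound ([…]) in HEPES pH 7.5 buffer with MgCl2, vanadate and Tween 20. Biotinylated peptide substrate ([…]) and ATP were then added; phosphotyrosine was detected by AlphaScreen PY100 acceptor and streptavidin donor beads after 2–3 h.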

[5] = system: BaF3 wild-type cells; assay: Cellular screening, BaF3 wild-type cells, Alamar Blue; type: cell-based; conditions: Mus musculus, 40 hr, read-out: BAF3wt IC50_nM
Procedure, shortened: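 Cells were cultured in DMEM with 10% FCS and 10% WEHI 3B conditioned medium, and suspensions were prepared at 1.1× final (50,000–200,000 cells/mL). Compounds from 20 μM dilution plates were added at 10× final and incubated for 40 hr at 37° C, 5% CO2. Alamar Blue was then added for 4–6 hours and read at 544 nm.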

T1 sequence (O60674 849-1124 limits assumed): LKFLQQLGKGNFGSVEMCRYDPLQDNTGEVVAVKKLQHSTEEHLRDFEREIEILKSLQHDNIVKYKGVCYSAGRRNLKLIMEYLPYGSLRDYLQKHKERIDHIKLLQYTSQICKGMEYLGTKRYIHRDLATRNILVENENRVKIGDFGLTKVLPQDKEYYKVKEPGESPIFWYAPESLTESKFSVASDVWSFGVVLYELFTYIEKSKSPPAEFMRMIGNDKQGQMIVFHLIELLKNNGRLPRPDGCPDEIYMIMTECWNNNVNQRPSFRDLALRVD
T3 sequence (P52333 822-1111 limits assumed): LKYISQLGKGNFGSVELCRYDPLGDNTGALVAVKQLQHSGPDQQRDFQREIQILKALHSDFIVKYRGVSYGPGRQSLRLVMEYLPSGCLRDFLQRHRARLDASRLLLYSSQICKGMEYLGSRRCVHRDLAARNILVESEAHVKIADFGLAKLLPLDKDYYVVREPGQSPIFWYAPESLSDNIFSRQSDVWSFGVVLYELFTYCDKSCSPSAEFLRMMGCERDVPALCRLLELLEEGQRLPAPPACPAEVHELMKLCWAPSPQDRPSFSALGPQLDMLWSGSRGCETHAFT
T2 sequence (O60674 whole entry, change not shown, the tested form may be a part): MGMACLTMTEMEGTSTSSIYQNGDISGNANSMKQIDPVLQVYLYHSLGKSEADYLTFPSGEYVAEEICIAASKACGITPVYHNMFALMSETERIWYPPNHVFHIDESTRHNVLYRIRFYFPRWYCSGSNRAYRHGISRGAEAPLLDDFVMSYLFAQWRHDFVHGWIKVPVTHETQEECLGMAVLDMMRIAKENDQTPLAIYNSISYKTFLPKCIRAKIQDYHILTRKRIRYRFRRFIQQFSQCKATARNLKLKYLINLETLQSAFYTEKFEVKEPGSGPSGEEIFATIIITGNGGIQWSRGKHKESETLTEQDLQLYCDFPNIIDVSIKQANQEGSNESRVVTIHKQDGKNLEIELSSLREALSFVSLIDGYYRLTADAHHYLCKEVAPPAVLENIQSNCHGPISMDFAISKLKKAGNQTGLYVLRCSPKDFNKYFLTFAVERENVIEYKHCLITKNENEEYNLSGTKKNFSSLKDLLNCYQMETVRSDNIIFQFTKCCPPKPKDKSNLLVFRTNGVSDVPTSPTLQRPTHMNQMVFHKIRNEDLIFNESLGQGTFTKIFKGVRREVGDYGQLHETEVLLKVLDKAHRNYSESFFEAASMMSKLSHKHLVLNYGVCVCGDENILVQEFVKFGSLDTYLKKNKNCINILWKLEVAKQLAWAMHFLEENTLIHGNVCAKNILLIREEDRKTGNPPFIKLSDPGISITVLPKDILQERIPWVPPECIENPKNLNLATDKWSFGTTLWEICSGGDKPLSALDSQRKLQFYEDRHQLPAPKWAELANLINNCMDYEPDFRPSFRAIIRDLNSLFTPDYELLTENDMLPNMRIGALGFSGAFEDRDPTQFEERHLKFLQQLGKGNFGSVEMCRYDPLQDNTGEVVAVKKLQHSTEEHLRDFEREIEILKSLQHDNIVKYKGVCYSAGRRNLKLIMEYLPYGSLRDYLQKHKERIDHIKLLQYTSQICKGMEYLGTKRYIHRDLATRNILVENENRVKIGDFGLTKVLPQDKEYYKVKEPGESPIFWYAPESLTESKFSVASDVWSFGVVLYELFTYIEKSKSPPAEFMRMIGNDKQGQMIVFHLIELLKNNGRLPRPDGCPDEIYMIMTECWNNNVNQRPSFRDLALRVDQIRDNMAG

Row | SMILES | IC50 [1] | IC50 [2] | GI50 [3] | IC50 [4] | IC50 [5]
1 | C=CC(=O)Nc1ccc(Sc2ccnc(Nc3ccc(S(=O)(=O)N4CCOCC4)cc3)n2)cc1 [Compound 367, N-(4-(2-(4-(morpholinosulfonyl)phenylao)pyrimidin-4-ylthio)phenyl)acrylamide] | < 20 µM | > 1 µM | < 20 µM | < 0.1 µM | < 20 µM
2 | c1cn(Cc2ccc(Sc3ccnc(Nc4ccc(N5CCOCC5)cc4)n3)cc2)cn1 [Compound 127, 4-(4-((1H-imidazol-1-yl)methyl)phenylthio)-N-(4-morpholinophenyl)pyrimidin-2-ae] | < 20 µM | < 1 µM | < 20 µM | < 0.5 µM | > 20 µM
3 | O=C(/C=C/Cl)Nc1ccc(Sc2ccnc(Nc3ccc(N4CCOCC4)cc3)n2)cc1 [Compound 342, (E)-3-chloro-N-(4-(2-(4-morpholinophenylao)pyrimidin-4-ylthio)phenyl)acrylamide] | < 20 µM | > 1 µM | > 20 µM | < 0.1 µM | > 20 µM
4 | C=CC(=O)Nc1ccc(Sc2nc(Nc3ccc(N4CCC(C(=O)OCC)CC4)cc3)ncc2C)cc1 [Compound 292, ethyl 1-(4-(4-(4-acrylamidophenylthio)-5-methylpyrimidin-2-ylao)phenyl)piperidine-4-carboxylate] | < 5 µM | > 1 µM | > 20 µM | < 0.1 µM | > 20 µM
5 | C=CC(=O)Nc1ccc(Sc2ccnc(Nc3cccc(OC)c3)n2)cc1 [Compound 105, N-(4-(2-(3-methoxyphenylao)pyrimidin-4-ylthio)phenyl)acrylamide] | < 20 µM | > 1 µM | < 20 µM | < 0.1 µM | > 20 µM
6 | C=CC(=O)Nc1ccc(Sc2ccnc(Nc3ccc(F)c(C#N)c3)n2)cc1 [Compound 354, N-(4-(2-(3-cyano-4-fluorophenylao)pyrimidin-4-ylthio)phenyl)acrylamide] | < 20 µM | > 1 µM | < 20 µM | < 0.1 µM | < 20 µM
7 | C=C(CN1CCOCC1)C(=O)Nc1cccc(Sc2ccnc(Nc3ccc(N4CCOCC4)cc3)n2)c1 [Compound 328, 2-(morpholinomethyl)-N-(3-(2-(4-morpholinophenylao)pyrimidin-4-ylthio)phenyl)acrylamide] | < 5 µM | > 1 µM | < 1 µM | < 0.1 µM | < 5 µM
8 | C=CC(=O)Nc1ccc(Sc2ccnc(Nc3cccc([N+](=O)[O-])c3)n2)cc1 [Compound 361, N-(4-(2-(3-nitrophenylao)pyrimidin-4-ylthio)phenyl)acrylamide] | > 20 µM | > 1 µM | < 5 µM | < 0.1 µM | > 20 µM
9 | C=CC(=O)Nc1ccc(Sc2nc(Nc3ccc(N4CCOCC4)cc3)ncc2Cl)cc1 [Compound 315, N-(4-(5-chloro-2-(4-morpholinophenylao)pyrimidin-4-ylthio)phenyl)acrylmide] | < 1 µM | > 1 µM | > 20 µM | < 0.1 µM | > 20 µM
10 | CCOC(=O)/C=C\C(=O)Nc1ccc(Sc2nc(Nc3ccc(N4CCOCC4)cc3)ncc2C)cc1 [Compound 388, (Z)-ethyl 4-(4-(5-methyl-2-(4-morpholinophenylao)pyrimidin-4-ylthio)phenylao)-4-oxobut-2-enoate] | < 5 µM | < 0.5 µM | < 5 µM | < 0.1 µM | < 5 µM
11 | C=CC(=O)N(C)c1ccc(Sc2ccnc(Nc3ccc(N4CCOCC4)cc3)n2)cc1 [Compound 91, N-methyl-N-(4-(2-(4-morpholinophenylao)pyrimidin-4-ylthio)phenyl)acrylamide] | < 1 µM | > 1 µM | < 20 µM | < 0.1 µM | > 20 µM
12 | C=CC(=O)Nc1ccc(Sc2nc(Nc3ccc(OC)c(O)c3)ncc2C)cc1 [Compound 283, N-(4-(2-(3-hydroxy-4-methoxyphenylao)-5-methylpyrimidin-4-ylthio)phenyl)acrylamide] | < 1 µM | > 1 µM | < 20 µM | < 0.1 µM | < 20 µM
13 | Cc1cnc(Nc2ccc(N3CCOCC3)cc2)nc1Sc1ccc(NC(=O)/C=C/C(=O)O)cc1 [Compound 387, (E)-4-(4-(5-methyl-2-(4-morpholinophenylao)pyrimidin-4-ylthio)phenylao)-4-oxobut-2-enoic acid] | > 20 µM | < 1 µM | > 20 µM | < 0.1 µM | > 20 µM
14 | C=CC(=O)Nc1ccc(Sc2nc(Nc3ccc(N4CCOCC4)cc3)ncc2C)c(Cl)c1C [Compound 171, N-(3-chloro-2-methyl-4-(5-methyl-2-(4-morpholinophenylao)pyrimidin-4-ylthio)phenyl)acrylamide] | < 20 µM | > 1 µM | > 20 µM | < 0.1 µM | > 20 µM
15 | C=CC(=O)Nc1ccc(Sc2ccnc(Nc3ccc(S(N)(=O)=O)cc3)n2)cc1 [Compound 352, N-(4-(2-(4-sulfamoylphenylao)pyrimidin-4-ylthio)phenyl)acrylamide] | < 20 µM | > 1 µM | < 20 µM | < 0.1 µM | > 20 µM
16 | C=CC(=O)Nc1ccc(Sc2ccnc(Nc3ccc(N4CCC(N5CCCC5)CC4)cc3)n2)cc1 [Compound 87, N-(4-(2-(4-(4-(pyrrolidin-1-yl)piperidin-1-yl)phenylao)pyrimidin-4-ylthio)phenyl)acrylamide] | < 1 µM | > 1 µM | < 5 µM | < 0.1 µM | < 5 µM
17 | C=CC(=O)Nc1ccc(Sc2nc(Nc3ccc(N4CCOCC4)cc3)ncc2I)cc1 [Compound 313, N-(4-(5-iodo-2-(4-morpholinophenylao)pyrimidin-4-ylthio)phenyl)acrylamide] | < 5 µM | > 1 µM | > 20 µM | < 0.1 µM | > 20 µM
18 | CC(=O)Nc1ccc(Sc2ccnc(Nc3ccc(N4CCC(N5CCCC5)CC4)cc3)n2)cc1 [Compound 86, N-(4-(2-(4-(4-(pyrrolidin-1-yl)piperidin-1-yl)phenylao)pyrimidin-4-ylthio)phenyl)acetamide] | < 5 µM | > 1 µM | < 20 µM | < 0.5 µM | < 5 µM
19 | C=CC(=O)Nc1ccc(Sc2nc(Nc3ccc(CNS(C)(=O)=O)cc3)ncc2C)cc1 [Compound 294, N-(4-(5-methyl-2-(4-(methylsulfonamidomethyl)phenylao)pyrimidin-4-ylthio)phenyl)acrylamide] | < 1 µM | > 1 µM | > 20 µM | < 0.1 µM | > 20 µM
20 | Nc1ccc(Sc2nc(Nc3ccc(N4CCOCC4)cc3)ncc2I)cc1 [Compound 309, 4-(4-aophenylthio)-5-iodo-N-(4-morpholinophenyl)pyrimidin-2-ae] | < 1 µM | > 1 µM | < 5 µM | < 0.5 µM | < 5 µM
21 | C=CC(=O)Nc1ccc(Sc2ccnc(Nc3cccc(C#N)c3)n2)cc1 [Compound 118, N-(4-(2-(3-cyanophenylao)pyrimidin-4-ylthio)phenyl)acrylamide] | > 20 µM | > 1 µM | < 5 µM | < 0.1 µM | > 20 µM
22 | C=CC(=O)Nc1ccc(Sc2nc(Nc3cccc(O)c3)ncc2C)cc1 [Compound 281, N-(4-(2-(3-hydroxyphenylao)-5-methylpyrimidin-4-ylthio)phenyl)acrylamide] | < 1 µM | > 1 µM | < 20 µM | < 0.1 µM | < 20 µM
23 | C=CC(=O)Nc1ccc(Sc2ccnc(Nc3ccc4c(c3)OCO4)n2)cc1 [Compound 393, N-(4-(2-(benzo[d][1,3]dioxol-5-ylao)pyrimidin-4-ylthio)phenyl)acrylamide] | < 5 µM | > 1 µM | < 20 µM | < 0.1 µM | > 20 µM
24 | Cc1cnc(Nc2ccc(N3CCOCC3)cc2)nc1Sc1ccc(NC(=O)COCC(=O)O)cc1 [Compound 188, 2-(2-(4-(5-methyl-2-(4-morpholinophenylao)pyrimidin-4-ylthio)phenylao)-2-oxoethoxy)acetic acid] | > 20 µM | < 0.5 µM | > 20 µM | < 0.1 µM | > 20 µM

Source: patent US8846704B2, “Thiopyrimidine-based compounds and uses thereof” (YM Biosciences Austraila Pty Ltd, priority 2007, dated 2014)
